Measured values as given in US11845760B2, “PRMT5 inhibitors” (AMGEN INC., priority 2020, dated 2023).
Like-named read-outs stand apart in the source and are kept apart here.

How the values were obtained:
HCT116 WT cells = assay: HCT116 WT cell line proliferation (CellTiter-Glo cell viability, 6 days); type: cell-based; conditions: HCT116 WT (parent) cells, 6 days of treatment, CellTiter-Glo cell viability, read-out: HCT-116 WT IC50
Procedure, shortened: (§1)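 Viability by CellTiter-Glo after 6 days' drug exposure in wild-type HCT116 and its MTAP-null knockout, with DMSO-only control. Dosing used either 1:3 steps (top 1 or 10 μM) or 22 points in 1:2 steps (top 10 or 50 μM). IC50 taken where the fitted curve crosses 50% of control.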

HCT116 MTAP null cells = assay: HCT116 MTAP null cell line proliferation (CellTiter-Glo cell viability, 6 days); type: cell-based; conditions: HCT116 MTAP null cells, 6 days of treatment, CellTiter-Glo cell viability, read-out: HCT-116 MTAP null IC50
Procedure, shortened: as §1

| SMILES | IC50 (HCT116 WT cells; Homo sapiens, HCT-116, 144 h) [nM] | IC50 (HCT116 MTAP null cells; HCT116-MTAP null, 144 h) [nM] | IC50 (HCT116 WT cells) [nM] | IC50 (HCT116 MTAP null cells) [nM] |
| --- | --- | --- | --- | --- |
| Nc1nc2cnc(C(=O)N3CCCC[C@@H]3c3ccc(C(F)(F)F)cc3)cc2c2c1COC2 (single isomer, unassigned) [Example 485] | 1740 | 40 | – | – |
| Nc1nc2cnc(C(=O)N3CCCC[C@H]3c3ccc(C(F)(F)F)cc3)cc2c2c1COC2 (single isomer, unassigned) [Example 486] | > 10000 | > 1000 | – | – |
| Nc1nc2ccc(C(=O)N3CCOC[C@H]3c3ccc(C(F)(F)F)cc3)cc2c2ccsc12 (single isomer, unassigned) [Example 487] | > 10000 | > 1000 | – | – |
| Nc1nc2ccc(C(=O)N3CCOC[C@@H]3c3ccc(C(F)(F)F)cc3)cc2c2ccsc12 (single isomer, unassigned) [Example 488] | 7490 | > 1000 | – | – |
| Nc1nc2ccc(C(=O)N3CCCC[C@H]3c3ccc(C(F)(F)F)cc3)cc2c2ccsc12 (single isomer, unassigned) [Example 489] | 5320 | > 1000 | – | – |
| Nc1nc2ccc(C(=O)N3CCCC[C@@H]3c3ccc(C(F)(F)F)cc3)cc2c2ccsc12 (single isomer, unassigned) [Example 490] | 4800 | > 1000 | – | – |
| CC(C)C[C@@H]1COC[C@H](c2ccc(C(F)(F)F)cc2)N1C(=O)c1cc2c3c(c(N)nc2cn1)COC3 (single isomer, unassigned) [Example 566] | > 10000 | > 10000 | – | – |
| CC(C)C[C@H]1COC[C@@H](c2ccc(C(F)(F)F)cc2)N1C(=O)c1cc2c3c(c(N)nc2cn1)COC3 (single isomer, unassigned) [Example 567] | > 10000 | 2140 | – | – |
| C[C@H]1OCc2c1c(N)nc1ccc(C(=O)N3CCOC[C@@H]3c3ccc(OC(F)(F)F)cc3)cc21 (single isomer, unassigned) [Example 568] | 1790 | 36 | – | – |
| C[C@@H]1OCc2c1c(N)nc1ccc(C(=O)N3CCOC[C@@H]3c3ccc(OC(F)(F)F)cc3)cc21 (single isomer, unassigned) [Example 569] | > 10000 | > 1000 | – | – |
| Nc1nc2ccc(C(=O)N3CCOC[C@@H]3c3ccc(C(F)(F)F)cn3)cc2c2c1COC2 (single isomer, unassigned) [Example 570] | 8760 | 221 | – | – |
| Nc1nc2ccc(C(=O)N3CCOC[C@H]3c3ccc(C(F)(F)F)cn3)cc2c2c1COC2 (single isomer, unassigned) [Example 571] | > 10000 | > 1000 | – | – |
| Nc1nc2ccc(C(=O)N3CCOC[C@H]3c3ccc(Br)cn3)cc2c2c1COC2 (single isomer, unassigned) [Example 572] | > 10000 | > 1000 | – | – |
| Nc1nc2ccc(C(=O)N3CCOC[C@@H]3c3ccc(Br)cn3)cc2c2c1COC2 (single isomer, unassigned) [Example 573] | > 10000 | 241 | – | – |
| C[C@@H]1CN(C(=O)c2ccc3nc(N)c4c(c3c2)COC4)[C@H](c2ccc(C(F)(F)F)cn2)CO1 (single isomer, unassigned) [Example 574] | > 10000 | > 1000 | – | – |
| C[C@H]1CN(C(=O)c2ccc3nc(N)c4c(c3c2)COC4)[C@@H](c2ccc(C(F)(F)F)cn2)CO1 (single isomer, unassigned) [Example 575] | 8480 | 357 | – | – |
| N#Cc1ccc([C@@H]2COCCN2C(=O)c2ccc3nc(N)c4c(c3c2)COC4)nc1 (single isomer, unassigned) [Example 576] | > 10000 | > 1000 | – | – |

| SMILES | IC50 (HCT116 WT cells; Homo sapiens, HCT-116, 144 h) [nM] | IC50 (HCT116 MTAP null cells; HCT116-MTAP null, 144 h) [nM] | IC50 (HCT116 WT cells) [nM] | IC50 (HCT116 MTAP null cells) [nM] |
| --- | --- | --- | --- | --- |
| N#Cc1ccc([C@H]2COCCN2C(=O)c2ccc3nc(N)c4c(c3c2)COC4)nc1 (single isomer, unassigned) [Example 577] | > 10000 | 873 | – | – |
| Nc1nc2ccc(C(=O)N3CCOC[C@H]3c3cccc(Cl)c3)cc2c2c1COC2 (single isomer, unassigned) [Example 578] | > 10000 | > 1000 | – | – |
| Nc1nc2ccc(C(=O)N3CCOC[C@@H]3c3cccc(Cl)c3)cc2c2c1COC2 (single isomer, unassigned) [Example 579] | 7570 | 182 | – | – |
| Nc1nc2ccc(C(=O)N3CCOC[C@H]3c3ccc(Cl)cc3)cc2c2c1COC2 (single isomer, unassigned) [Example 580] | > 10000 | > 1000 | – | – |
| Nc1nc2ccc(C(=O)N3CCOC[C@@H]3c3ccc(Cl)cc3)cc2c2c1COC2 (single isomer, unassigned) [Example 581] | 6570 | 183 | – | – |
| C[C@H]1COC[C@@H](c2ccc(C(F)(F)F)cn2)N1C(=O)c1ccc2nc(N)c3c(c2c1)COC3 (single isomer, unassigned) [Example 582] | > 10000 | > 1000 | – | – |
| CC1COC[C@H](c2ccc(C(F)(F)F)cn2)N1C(=O)c1ccc2nc(N)c3c(c2c1)COC3 (single isomer, unassigned) [Example 583] | 616 | 17 | – | – |
| Cn1ncc2c3cc(C(=O)N4CCOC[C@@H]4c4ccc(C(F)(F)F)cc4)ccc3nc(N)c21 (single isomer, unassigned) [Example 584] | 11700 | 236 | – | – |
| C[C@@H]1CN(C(=O)c2ccc3nc(N)c4c(c3c2)COC4)[C@@H](c2ccc(OC(F)(F)F)cc2)CO1 (single isomer, unassigned) [Example 585] | > 10000 | > 1000 | – | – |
| C[C@H]1CN(C(=O)c2ccc3nc(N)c4c(c3c2)COC4)[C@H](c2ccc(OC(F)(F)F)cc2)CO1 (single isomer, unassigned) [Example 586] | 2920 | 82 | – | – |
| C[C@H]1COC[C@@H](c2ccc(OC(F)(F)F)cc2)N1C(=O)c1ccc2nc(N)c3c(c2c1)COC3 (single isomer, unassigned) [Example 587] | > 10000 | > 1000 | – | – |
| C[C@@H]1COC[C@H](c2ccc(OC(F)(F)F)cc2)N1C(=O)c1ccc2nc(N)c3c(c2c1)COC3 (single isomer, unassigned) [Example 588] | 466 | 14 | – | – |
| CC(C)(C)OC(=O)N1CCN(C(=O)c2cc3c4c(c(N)nc3cn2)COC4)[C@@H](c2ccc(C(F)(F)F)cc2)C1 (single isomer, unassigned) [Example 589] | – | – | > 10000 | 5100 |
| CC(C)(C)OC(=O)N1CCN(C(=O)c2cc3c4c(c(N)nc3cn2)COC4)[C@H](c2ccc(C(F)(F)F)cc2)C1 (single isomer, unassigned) [Example 590] | – | – | 1800 | 56 |
| Nc1nc2ccc(C(=O)N3CCOC[C@H]3c3ccc(OC(F)(F)F)nc3)cc2c2c1COC2 (single isomer, unassigned) [Example 591] | > 10000 | 6160 | – | – |
| Nc1nc2ccc(C(=O)N3CCOC[C@@H]3c3ccc(OC(F)(F)F)nc3)cc2c2c1COC2 (single isomer, unassigned) [Example 592] | 8900 | 145 | – | – |
| Nc1nc2ccc(C(=O)N3CCOC[C@@H]3c3ccc(C(F)(F)F)nn3)cc2c2c1COC2 (single isomer, unassigned) [Example 593] | > 10000 | 936 | – | – |
